Experimental data: PubChem BioAssay (NCI)
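1) Cells in 96-well plates. 2) Compound, 48 h, 5 concentrations. 3) Linear interpolation between surrounding doses. 4) Unreached endpoint = highest concentration. At the TGI there is no net growth.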

Assays:
Experiment in all cases: NCI-60 cell line screen, 48 h
UO-31 renal = system: UO-31 renal
K-562 leukemia = system: K-562 leukemia
OVCAR-3 ovarian = system: OVCAR-3 ovarian
NCI-H23 lung = system: NCI-H23 lung
HCC-2998 colon = system: HCC-2998 colon
MDA-N = system: MDA-N
HOP-92 NSCLC = system: HOP-92 NSCLC
HS 578T breast = system: HS 578T breast
MALME-3M melanoma = system: MALME-3M melanoma
IGROV1 ovarian = system: IGROV1 ovarian
T-47D breast = system: T-47D breast
U251 CNS = system: U251 CNS
A549 NSCLC = system: A549 NSCLC
SK-OV-3 ovarian = system: SK-OV-3 ovarian
OVCAR-4 ovarian = system: OVCAR-4 ovarian
HCT-116 colon = system: HCT-116 colon
PC-3 prostate = system: PC-3 prostate
SW-620 colon = system: SW-620 colon
EKVX NSCLC = system: EKVX NSCLC
NCI-H460 lung = system: NCI-H460 lung
CAKI-1 renal = system: CAKI-1 renal
SN12C renal = system: SN12C renal
UACC-257 melanoma = system: UACC-257 melanoma
MCF7 breast = system: MCF7 breast
SK-MEL-2 melanoma = system: SK-MEL-2 melanoma
SR leukemia = system: SR leukemia
HOP-62 NSCLC = system: HOP-62 NSCLC
SK-MEL-5 melanoma = system: SK-MEL-5 melanoma
MDA-MB-231 breast = system: MDA-MB-231 breast
A498 renal = system: A498 renal
MDA-MB-435 = system: MDA-MB-435
M14 melanoma = system: M14 melanoma
HCT-15 colon = system: HCT-15 colon
NCI/ADR-RES ovarian = system: NCI/ADR-RES ovarian
BT-549 breast = system: BT-549 breast
SF-295 CNS = system: SF-295 CNS
HT29 colon = system: HT29 colon
TK-10 renal = system: TK-10 renal
UACC-62 melanoma = system: UACC-62 melanoma
SNB-75 CNS = system: SNB-75 CNS
SK-MEL-28 melanoma = system: SK-MEL-28 melanoma
LOX IMVI melanoma = system: LOX IMVI melanoma
SF-539 CNS = system: SF-539 CNS
RXF 393 renal = system: RXF 393 renal
KM12 colon = system: KM12 colon
MOLT-4 leukemia = system: MOLT-4 leukemia
NCI-H522 lung = system: NCI-H522 lung
SF-268 CNS = system: SF-268 CNS
CCRF-CEM leukemia = system: CCRF-CEM leukemia
ACHN renal = system: ACHN renal
SNB-19 CNS = system: SNB-19 CNS
HL-60(TB) leukemia = system: HL-60(TB) leukemia
OVCAR-8 ovarian = system: OVCAR-8 ovarian
786-0 renal = system: 786-0 renal
RPMI-8226 leukemia = system: RPMI-8226 leukemia
COLO 205 colon = system: COLO 205 colon
OVCAR-5 ovarian = system: OVCAR-5 ovarian
NCI-H226 lung = system: NCI-H226 lung
DU-145 prostate = system: DU-145 prostate

Measured: TGI

Cc1ccc(C(=O)N/N=C2/C(=O)c3c4ccccc4cc4cccc2c34)cc1
> 73.4 µM: MDA-MB-435
> 69 µM: RXF 393 renal
> 87.1 µM: RPMI-8226 leukemia
66.6 µM: OVCAR-3 ovarian
27.3 µM: HCT-116 colon
> 77.2 µM: NCI-H460 lung
> 91.2 µM: NCI/ADR-RES ovarian
> 75.9 µM: SK-OV-3 ovarian
11.6 µM: MCF7 breast
> 67.3 µM: U251 CNS
> 93.1 µM: UACC-62 melanoma
> 89.8 µM: SNB-19 CNS
> 70.7 µM: SK-MEL-5 melanoma
> 84.3 µM: KM12 colon
74.1 µM: 786-0 renal
43.4 µM: HOP-62 NSCLC
44.4 µM: MALME-3M melanoma
> 81 µM: CAKI-1 renal | SNB-75 CNS
58.1 µM: HS 578T breast
> 85.2 µM: IGROV1 ovarian
> 94 µM: HOP-92 NSCLC
39.3 µM: ACHN renal
77.8 µM: NCI-H23 lung
97.5 µM: HT29 colon
83.2 µM: T-47D breast
59.8 µM: NCI-H522 lung
76.5 µM: SN12C renal
> 92.9 µM: SF-539 CNS
97.4 µM: SK-MEL-28 melanoma
43.2 µM: SF-295 CNS
88.2 µM: SF-268 CNS
not listed: DU-145 prostate
> 100 µM: all other assays above

CC1(C)OC2OC(COC(=O)c3ccc(C#N)cc3)C3OC(C)(C)OC3C2O1 (configuration not stated)
not listed: HOP-92 NSCLC | HS 578T breast | T-47D breast | NCI-H460 lung | HL-60(TB) leukemia
> 75 µM: all other assays above
